Data from patent publication US20260272954A1, “ANALGESIC COMPOUNDS COMPRISING CHARGED PARTICLES AND METHOD OF MANUFACTURE THEREOF” (UNIVERSITY OF CONNECTICUT, priority 2023, published 2026).

Experiment: Release of QX-314 into water through dialysis membrane (HPLC)
Assay type: physicochemical
Conditions: dialysis membrane in 20 ml ultrapure water; FIG. 6
Method: High Performance Liquid Chromatography (HPLC) was used to assess the amount of QX-314 remaining in the supernatant after complexing with the NPs. The conditions for HPLC were as follows. The mobile phase consisted of 50 mM phosphate buffer, with 0.16% triethylamine, pH 4.0 buffer:methanol:acetonitrile=60:30:10 vol/vol/vol. The chromatographic conditions were: 30 μL of solution injected, 40° C. constant temperature, flow rate of 0.3 ml/min, and wavelength detection of 210 nm. The column used was a Supelco C18 Column 25 cm×4.6 mm.
The DPPC:PA (mass ratio=1:1) nanoparticles were complexed with QX-314 by incubating 0.5 mg of QX-314 with 1 mL of 0.25% (w/v) lipid solution in a 37° C. room on a gentle shaker. After 1 hour, the formulation was transferred to a dialysis membrane and incubated in 20 ml of ultrapure water. The amount of QX-314 released into the water was measured as a function of time using HPLC as described above. Aqueous solution of QX-314 in dialysis membrane was used as the control. A representative image of positively charged molecule (QX-314) complexed with negatively charged lipid (L-α-phosphatidic acid) is shown below.

burst release of QX-314 (time): ≤ 3 h
Structure (SMILES): CC[N+](CC)(CC)CC(=O)Nc1c(C)cccc1C [QX-314 solution, QX-314]
